Here are results for 12 compounds from US20150284380A1, “NOVEL HETEROCYCLIC COMPOUNDS AS PEST CONTROL AGENTS” (BAYER CROPSCIENCE AG, priority 2012, published 2015).

One may read the chromatographic logP as a lipophilicity value derived from retention on a column.

The nature of series [1]: logP by HPLC-MS (HCOOH or neutral).
Series [2] deals with green peach aphid (Myzus persicae). In words: Myzus persicae spray test. The format is in vivo. To be noted: foliar, 144 h, read-out: efficacy in % (aphids killed). Here is the method:
Myzus persicae—Spray Test
Solvent: 78 parts by weight of acetone • • 1.5 parts by weight of dimethylformamide
Emulsifier: 0.5 parts by weight of alkylaryl polyglycol ether
To produce a suitable active compound formulation, 1 part by weight of active compound is mixed with the stated amounts of solvent and emulsifier, and the concentrate is diluted with emulsifier-containing water to the desired concentration.
Discs of Chinese cabbage leaves (Brassica pekinensis) infested by all stages of the green peach aphid (Myzus persicae) are sprayed with an active compound formulation of the desired concentration.
After 6 days, the efficacy in % is determined. 100% means that all the aphids have been killed; 0% means that none of the aphids have been killed.

The mark [3] stands for this setting: HCOOH (formic acid), logP (HCOOH), HPLC-MS, HCOOH.
[4] abbreviates: application rate 500 g/ha, spray on infested Chinese cabbage leaf discs, after 6 days.
Where [5] appears, read: logP (neutral), HPLC-MS, neutral.

Where two headings read alike, the source gives them in different places.

Consider `c1cnc(-c2cccc(-c3cnc(-c4cncs4)s3)n2)nc1` [Example 1, 5-[6-(Pyrimidin-2-yl)pyridin-2-yl]-2,5′-bi-1,3-thiazole], for which the chromatographic logP in series [1] (setting [3]) is 1.76. The “logP (HCOOH)” value in series [1] (HPLC-MS, HCOOH) was 1.74. In addition, the pest or weed control at 500 g/ha in series [2] (setting [4]) is 80%.
Take `c1cnc(-c2cccc(-c3cnn(-c4cnsc4)c3)n2)nc1` [Example 2, 2-{6-[1-(isothiazol-4-yl)-1H-pyrazol-4-yl]pyridin-2-yl}pyrimidine]: the chromatographic logP in series [1] (setting [3]) was 1.65; in series [1] (setting [5]), 1.64.
Turning to `c1cnc(-c2cccc(-c3cnc(-c4ccnnc4)s3)n2)nc1` [Example 3, 4-{5-[6-(Pyrimidin-2-yl)pyridin-2-yl]-1,3-thiazol-2-yl}pyridazine], the chromatographic logP was found to be 1.37 in series [1] (setting [3]) and 1.4 in series [1] (neutral, logP (neutral), HPLC-MS). Further, in series [2] (setting [4]), the pest or weed control at 500 g/ha is 90%.
Regarding `CS(=O)(=O)NC(=O)c1cccc(-c2cnc(-c3ccnnc3)s2)n1` [Example 4], the chromatographic logP in series [1] (setting [3]) was 1.36. In series [2] (setting [4]), the pest or weed control at 500 g/ha worked out at 100%.
The like results for `c1cnc(-c2cccc(-c3cnn(-c4ccnnc4)c3)n2)nc1` [Example 5] were, in that order, 1.23 and 90%.
`c1cnc(-c2cccc(-c3cnn(-c4cnccn4)c3)n2)nc1` [Example 6] gave a chromatographic logP in series [1] (setting [3]) of 1.65. Also, in series [2] (setting [4]), the pest or weed control at 500 g/ha turned out to be 100%.
Taken in the same sequence, the figures for `Cn1cc(-n2cc(-c3cccc(-c4ncccn4)n3)cn2)cn1` [Example 7] were 1.37 and 100%.
Take `Cn1cc(-c2ncc(-c3cccc(-c4ncccn4)n3)s2)cn1` [Example 8, 2-{6-[2-(1-Methyl-1H-pyrazol-4-yl)-1,3-thiazol-5-yl]pyridin-2-yl}pyrimidine]: in series [1] (setting [5]), the chromatographic logP was found to be 1.56. In series [2] (setting [4]), the pest or weed control at 500 g/ha stood at 100%.
As to `c1cnc(-c2cccc(-c3cnc(-c4cn[nH]c4)s3)n2)nc1` [Example 9, 2-{6-[2-(1H-Pyrazol-4-yl)-1,3-thiazol-5-yl]pyridin-2-yl}pyrimidine], in series [1], the chromatographic logP is 1.35. Besides, in series [2] (in Brassica rapa), the pest or weed control at 500 g/ha came to 90%.
`c1cnc(-c2cccc(-c3cnc(-c4cnsc4)s3)n2)nc1` [Example 10] showed a chromatographic logP in series [1] (setting [3]) of 1.91.
In turn, `FC(F)(F)c1cccc(-c2cnc(-c3cnsc3)s2)n1` [Example 11] returned a chromatographic logP in series [1] (setting [3]) of 3.13. Further, the pest or weed control at 500 g/ha in series [2] (setting [4]) was found to be 90%.
The like results for `CS(=O)(=O)NC(=O)c1cccc(-c2cnc(-c3cnsc3)s2)n1` [Example 12] were, in that order, 1.9 and 90%.
